Measurements taken from ChEMBL document CHEMBL5346954, “Rational Design of RNA Demethylase FTO Inhibitors with Enhanced Antileukemia Drug-Like Properties” (J Med Chem, 2023).
Values after ≈ are worked out from the molar mass of the structure shown. Active and inactive are the calls of the source. No cut-off for these calls is given here.

Columns and labels:
MOLM-13 [1] = experiment: Antiproliferative activity against human MOLM-13 cells incubated for 72 hrs by CCK8 assay; format: functional, cell-based; conditions: MOLM-13, 72 h
NB-4 [2] = experiment: Antiproliferative activity against human NB4 cells incubated for 72 hrs by CCK8 assay; format: functional, cell-based; conditions: NB-4, 72 h
[3] = target: T1, Alpha-ketoglutarate-dependent dioxygenase FTO (Homo sapiens, UniProt Q9C0B1); experiment: Inhibition of FTO (unknown origin)
Target sequence in this assay (Q9C0B1 whole entry): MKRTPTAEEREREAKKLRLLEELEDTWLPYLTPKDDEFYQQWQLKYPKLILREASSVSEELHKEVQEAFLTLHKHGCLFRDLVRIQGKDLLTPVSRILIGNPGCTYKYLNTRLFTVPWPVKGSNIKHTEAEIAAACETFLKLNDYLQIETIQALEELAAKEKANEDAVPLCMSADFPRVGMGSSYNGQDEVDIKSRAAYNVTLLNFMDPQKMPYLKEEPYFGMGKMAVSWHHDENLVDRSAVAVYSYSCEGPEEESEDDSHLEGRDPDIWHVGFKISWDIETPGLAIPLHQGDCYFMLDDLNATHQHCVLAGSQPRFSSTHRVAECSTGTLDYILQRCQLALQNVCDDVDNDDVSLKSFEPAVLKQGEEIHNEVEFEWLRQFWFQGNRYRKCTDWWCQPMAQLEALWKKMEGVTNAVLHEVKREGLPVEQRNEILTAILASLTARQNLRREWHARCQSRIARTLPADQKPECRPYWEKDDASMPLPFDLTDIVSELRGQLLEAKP

[4] = Solubility of the compound in PBS at pH 7.4; format: physicochemical
[5] = Permeability of the compound by PAMPA; format: ADME; conditions: read-out: permeability
[6] = target: T2, Alpha-ketoglutarate-dependent dioxygenase alkB homolog 3 (Homo sapiens) (UniProt Q96Q83); experiment: Inhibition of ALKBH3 (unknown origin)
T2 sequence (whole entry): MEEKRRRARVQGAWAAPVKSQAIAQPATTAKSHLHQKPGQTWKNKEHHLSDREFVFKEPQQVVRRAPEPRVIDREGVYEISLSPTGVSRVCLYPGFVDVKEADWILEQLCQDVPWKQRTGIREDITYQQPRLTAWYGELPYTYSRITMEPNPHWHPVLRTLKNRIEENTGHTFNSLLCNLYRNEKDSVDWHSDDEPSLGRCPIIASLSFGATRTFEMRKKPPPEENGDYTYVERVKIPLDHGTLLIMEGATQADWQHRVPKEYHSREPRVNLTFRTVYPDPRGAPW

[7] = target: RNA demethylase ALKBH5 (Homo sapiens) (UniProt Q6P6C2); experiment: Inhibition of ALKBH5 (unknown origin)
HEL = experiment: Antiproliferative activity against HEL cells incubated for 72 hrs by CCK8 assay; format: functional, cell-based; conditions: Homo sapiens
KG-1 = experiment: Antiproliferative activity against human KG-1 cells incubated for 72 hrs by CCK8 assay; format: functional, cell-based; conditions: KG-1, 72 h
MV4-11 [8] = experiment: Antiproliferative activity against human MV4-11 cells incubated for 72 hrs by CCK8 assay; format: functional, cell-based; conditions: MV4-11, 72 h
THP-1 = experiment: Antiproliferative activity against human THP-1 cells incubated for 72 hrs by CCK8 assay; format: functional, cell-based; conditions: THP-1, 72 h
[9] = target: T1, Alpha-ketoglutarate-dependent dioxygenase FTO; experiment: Inhibition of FTO (unknown origin) using (5'-AUUGUCA(M6A)CAGCAGC-3') as substrate incubated for 2 hrs by dot-blot assay
Target sequence in this assay (Q9C0B1 whole entry): as the sequence (Q9C0B1 whole entry) above

[10] = target: T1, Alpha-ketoglutarate-dependent dioxygenase FTO; experiment: Inhibition of FTO (unknown origin) by PAGE based assay
Target sequence in this assay (Q9C0B1 whole entry): as the sequence (Q9C0B1 whole entry) above

NB-4 [11] = experiment: Inhibition of colony formation in human NB4 cells incubated for 14 days by nitroblue tetrazolium chloride staining based assay; format: functional, cell-based; conditions: time 14.0 day
MOLM-13 [12] = experiment: Inhibition of colony formation in human MOLM-13 cells incubated for 14 days by nitroblue tetrazolium chloride staining based assay; format: functional, cell-based; conditions: time 14.0 day
[13] = target: T1, Alpha-ketoglutarate-dependent dioxygenase FTO; experiment: Inhibition of FTO in human NB4 cells assessed as increase in abundance of m6A on RNA at 5 to 20 uM incubated for 48 hrs by dot-blot assay; format: cell-based; conditions: dose 5-20 µM
Target sequence in this assay (Q9C0B1 whole entry, looked up): as the sequence (Q9C0B1 whole entry) above

[14] = target: T1, Alpha-ketoglutarate-dependent dioxygenase FTO; experiment: Inhibition of FTO in human MOLM-13 cells assessed as increase in abundance of m6A on RNA at 5 to 20 uM incubated for 48 hrs by dot-blot assay; format: cell-based; conditions: dose 5-20 µM
Target sequence in this assay (Q9C0B1 whole entry, looked up): as the sequence (Q9C0B1 whole entry) above

[15] = target: T1, Alpha-ketoglutarate-dependent dioxygenase FTO; experiment: Inhibition of FTO in human MOLM-13 cells assessed as upregulation RARA RNA level at 5 to 10 uM incubated for 72 hrs by RT-qPCR analysis; format: cell-based; conditions: dose 5-10 µM
Target sequence in this assay (Q9C0B1 whole entry, looked up): as the sequence (Q9C0B1 whole entry) above

[16] = target: T1, Alpha-ketoglutarate-dependent dioxygenase FTO; experiment: Inhibition of FTO in human MOLM-13 cells assessed as downregulation Myc RNA level at 5 to 10 uM incubated for 72 hrs by RT-qPCR analysis; format: cell-based; conditions: dose 5-10 µM
Target sequence in this assay (Q9C0B1 whole entry, looked up): as the sequence (Q9C0B1 whole entry) above

[17] = target: T1, Alpha-ketoglutarate-dependent dioxygenase FTO; experiment: Inhibition of FTO in human MOLM-13 cells assessed as upregulation RARA protein level at 5 to 10 uM incubated for 48 hrs by Western blot analysis; format: cell-based; conditions: dose 5-10 µM
Target sequence in this assay (Q9C0B1 whole entry, looked up): as the sequence (Q9C0B1 whole entry) above

[18] = target: T1, Alpha-ketoglutarate-dependent dioxygenase FTO; experiment: Inhibition of FTO in human MOLM-13 cells assessed as downregulation Myc protein level at 5 to 10 uM incubated for 48 hrs by Western blot analysis; format: cell-based; conditions: dose 5-10 µM
Target sequence in this assay (Q9C0B1 whole entry, looked up): as the sequence (Q9C0B1 whole entry) above

[19] = Metabolic stability in human liver microsomes assessed as half life; format: ADME, Microsome
[20] = Metabolic stability in mouse liver microsomes assessed as half life; format: ADME, Microsome
[21] = Metabolic stability in human liver microsomes assessed as intrinsic clearance per mg of protein; format: ADME, Microsome; conditions: read-out: CLH
[22] = Metabolic stability in mouse liver microsomes assessed as intrinsic clearance per mg of protein; format: ADME, Microsome; conditions: read-out: CLH
[23] = Tmax in ICR mouse at 1 mg/kg, iv measured upto 24 hrs by LC-MS/MS analysis; format: ADME, organism-based; conditions: in vivo
[24] = Tmax in ICR mouse at 10 mg/kg, po measured upto 24 hrs by LC-MS/MS analysis; format: ADME, organism-based; conditions: in vivo
[25] = Cmax in ICR mouse at 1 mg/kg, iv measured upto 24 hrs by LC-MS/MS analysis; format: ADME, organism-based; set-up: time < 24 hrs, dose 1 mg/kg, route iv; conditions: in vivo
[26] = Cmax in ICR mouse at 10 mg/kg, po measured upto 24 hrs by LC-MS/MS analysis; format: ADME, organism-based; set-up: dose 10 mg/kg, time < 24 hrs, route po; conditions: in vivo
[27] = AUC(0 to t) in ICR mouse at 1 mg/kg, iv measured upto 24 hrs by LC-MS/MS analysis; format: ADME, organism-based; set-up: time < 24 hrs, dose 1 mg/kg, route iv; conditions: in vivo
[28] = AUC(0 to t) in ICR mouse at 10 mg/kg, po measured upto 24 hrs by LC-MS/MS analysis; format: ADME, organism-based; set-up: dose 10 mg/kg, time < 24 hrs, route po; conditions: in vivo
[29] = AUC(0 to infinity) in ICR mouse at 1 mg/kg, iv measured upto 24 hrs by LC-MS/MS analysis; format: ADME, organism-based; set-up: dose 1 mg/kg, time < 24 hrs, route iv; conditions: in vivo
[30] = AUC(0 to infinity) in ICR mouse at 10 mg/kg, po measured upto 24 hrs by LC-MS/MS analysis; format: ADME, organism-based; set-up: time < 24 hrs, dose 10 mg/kg, route po; conditions: in vivo
[31] = Oral bioavailability in ICR mouse at 10 mg/kg measured upto 24 hrs by LC-MS/MS analysis; format: ADME, organism-based; conditions: in vivo
MV4-11 [32] = experiment: Antitumor activity against human MV4-11 cells xenografted in BALB/c mouse assessed as reduction in tumor volume at 40 mg/kg, ip administered daily for 26 days; format: functional, organism-based; conditions: time 26.0 day
MV4-11 [33] = experiment: Antitumor activity against human MV4-11 cells xenografted in BALB/c mouse assessed as reduction in tumor weight at 40 mg/kg, ip administered daily for 26 days; format: functional, organism-based; conditions: time 26.0 day
[34] = Toxicity in BALB/c mouse xenografted with human MV4-11 cells assessed as body weight loss at 40 mg/kg, ip administered daily for 26 days; format: organism-based; conditions: in vivo, 624 h, time 26 day
Mus musculus = experiment: In vivo inhibition of FTO in human MV4-11 cells xenografted in BALB/c mouse assessed as increase in m6A abundance at 40 mg/kg, ip administered daily for 26 days; format: functional, organism-based; conditions: time 26.0 day

Chain of RNA demethylase ALKBH5 (Homo sapiens) (Q6P6C2 2-394 limits assumed): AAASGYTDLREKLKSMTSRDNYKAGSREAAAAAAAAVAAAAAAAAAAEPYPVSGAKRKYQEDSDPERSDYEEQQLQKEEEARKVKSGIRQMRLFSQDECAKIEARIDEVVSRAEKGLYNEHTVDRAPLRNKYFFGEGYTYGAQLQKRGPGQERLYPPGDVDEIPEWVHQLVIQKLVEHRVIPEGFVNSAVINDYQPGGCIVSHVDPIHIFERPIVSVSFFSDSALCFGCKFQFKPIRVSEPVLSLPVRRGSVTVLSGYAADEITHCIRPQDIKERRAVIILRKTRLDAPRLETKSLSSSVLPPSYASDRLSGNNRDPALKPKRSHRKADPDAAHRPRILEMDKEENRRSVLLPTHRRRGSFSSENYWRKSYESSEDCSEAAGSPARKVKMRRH

Compound: Cc1noc(C)c1-c1c(F)c(F)c(Nc2cccc(CN3CCCOCC3)c2C(=O)O)c(F)c1F
- IC50 (MOLM-13 [1]): 1500 nM
- IC50 (NB-4 [2]): 1000 nM

Compound: CCc1cc(-c2ccncc2)cc(CC)c1Nc1cccc(CN(CCOC)CCOC)c1C(=O)O
- IC50 [3]: 6.3 µM

Compound: O=C(O)c1c(CN2CCCOCC2)cccc1Nc1c(C2CC2)cc(-c2ccncc2)cc1C1CC1
- IC50 [3]: 2.6 µM

Compound: CCc1cc(-c2ccncc2)cc(CC)c1Nc1cccc(Cn2ccnc2)c1C(=O)O
- IC50 [3]: 6.5 µM

Compound: Cc1noc(C)c1-c1cc(Cl)c(Nc2cccc(CN3CCCOCC3)c2C(=O)O)c(C(F)(F)F)c1
- IC50 [3]: 6.1 µM
- IC50 (MOLM-13 [1]): 2200 nM
- IC50 (NB-4 [2]): 2300 nM
- solubility [4]: 42.6 µM (≈ 22.3 µg/mL)
- Papp [5]: 14.1 ×10⁻⁶ cm/s

Compound: Cc1n[nH]c(C)c1-c1cc(Cl)c(Nc2cccc(CN3CCCOCC3)c2C(=O)O)c(Cl)c1
- IC50 [3]: 4 µM
- IC50 (MOLM-13 [1]): 1500 nM
- IC50 (NB-4 [2]): 1000 nM
- solubility [4]: 18.1 µM (≈ 8.86 µg/mL)
- Papp [5]: 4.5 ×10⁻⁶ cm/s

Compound: O=C(O)c1c(CN2CCCOCC2)cccc1Nc1c(Cl)cc(-c2nnn[nH]2)cc1Cl
- solubility [4]: 305 µM (≈ 141 µg/mL)
- Papp [5]: < 0.001 ×10⁻⁶ cm/s

Compound: CCc1cc(-c2ccncc2)cc(CC)c1Nc1cccc(CN2CC(N(C)C)C2)c1C(=O)O
- IC50 (MOLM-13 [1]): 1500 nM
- IC50 (NB-4 [2]): 1000 nM

Compound: Cc1noc(C)c1-c1cc(F)c(Nc2cccc(CN3CCCOCC3)c2C(=O)O)c(F)c1F
- IC50 (MOLM-13 [1]): 1500 nM
- IC50 (NB-4 [2]): 1000 nM

Compound: Cc1noc(C)c1-c1cc(Cl)c(Nc2cccc(CN3CCCOCC3)c2C(=O)O)c(C2CC2)c1
- IC50 [3]: 2.3 µM
- inhibition [6]: inactive
- inhibition [7]: inactive
- IC50 (HEL): 10.3 µM
- IC50 (KG-1): 4.1 µM
- IC50 (MOLM-13 [1]): 1700 nM
- IC50 (MV4-11 [8]): 3.4 µM
- IC50 (NB-4 [2]): 1500 nM
- IC50 (THP-1): 6 µM
- IC50 [9]: 120 nM
- IC50 [10]: 2300 nM
- inhibition (NB-4 [11]): Dose-Dependent Effect
- inhibition (MOLM-13 [12]): Dose-Dependent Effect
- inhibition [13]: Active
- inhibition [14]: Active
- inhibition [15]: Active
- inhibition [16]: Active
- inhibition [17]: Active
- inhibition [18]: Active
- solubility [4]: 7.6 µM (≈ 3.77 µg/mL)
- Papp [5]: 21.4 ×10⁻⁶ cm/s
- half-life [19]: 91.7 min
- half-life [20]: > 185 min
- microsomal CLint [21]: 15.1 µL/min/mg
- microsomal CLint [22]: 13.3 µL/min/mg
- Tmax [23]: 2.5 h
- Tmax [24]: 30 min
- Cmax [25]: 3700 ng/mL
- Cmax [26]: 7200 ng/mL
- AUC(0-t) at 24 h [27]: 46200 ng·h/mL
- AUC(0-t) at 24 h [28]: 80500 ng·h/mL
- AUC(0-inf) [29]: 55600 ng·h/mL
- AUC(0-inf) [30]: 103000 ng·h/mL
- bioavailability [31]: 18.5%
- Activity (MV4-11 [32]): Active
- Activity (MV4-11 [33]): Active
- Activity [34]: Non-Toxic
- inhibition (Mus musculus): Active

Compound: CCc1cc(-c2ccncc2)cc(CC)c1Nc1cccc(CN2CCCOCC2)c1C(=O)O
- IC50 (MOLM-13 [1]): 1500 nM
- IC50 (NB-4 [2]): 1000 nM

Compound: CCc1cc(-c2c(C)noc2C)cc(CC)c1Nc1cccc(CN2CCCOCC2)c1C(=O)O
- IC50 (MOLM-13 [1]): 1500 nM
- IC50 (NB-4 [2]): 1000 nM

Compound: CCc1cc(-c2ccncc2)cc(CC)c1Nc1cccc(CN(CC)CCN2CCOCC2)c1C(=O)O
- IC50 [3]: 6.8 µM

Compound: Cc1noc(C)c1-c1cc(F)c(Nc2ccccc2C(=O)O)c(Cl)c1
- solubility [4]: 275 µM (≈ 99.1 µg/mL)
- Papp [5]: 17.4 ×10⁻⁶ cm/s
- half-life [19]: > 185 min
- half-life [20]: 105 min
- microsomal CLint [21]: < 7.5 µL/min/mg
- microsomal CLint [22]: < 7.5 µL/min/mg
- Tmax [23]: 1.5 h
- Tmax [24]: 60 min
- Cmax [25]: 5400 ng/mL
- Cmax [26]: 8500 ng/mL
- AUC(0-t) at 24 h [27]: 36200 ng·h/mL
- AUC(0-t) at 24 h [28]: 63600 ng·h/mL
- AUC(0-inf) [29]: 39200 ng·h/mL
- AUC(0-inf) [30]: 68800 ng·h/mL
- bioavailability [31]: 17.5%

Compound: CCc1cc(-c2ccncc2)cc(CC)c1Nc1cccc(CN(CC)CC)c1C(=O)O
- IC50 [3]: 7.6 µM
